Measured values published in patent US20210040118A1, “IMMUNOMODULATORS, COMPOSITIONS AND METHODS THEREOF” (BETTA PHARMACEUTICALS CO., LTD, priority 2018, published 2021).

Each compound was assayed against T1, PD-1/PD-L1 (Homo sapiens, UniProt Q9NZQ7) (assay: PD-1/PD-L1 homogenous time-resolved fluorescence (HTRF) binding assay). Conditions: recombinant human PD-L1 (19-238) His-tag / human PD-1 (25-167) Fc tag, class symbols.
T1 construct: Recombinant human PD-L1 protein (19-238) with a His-tag at the C-terminus; purchased AcroBiosystems PD1-H5229 (PD-L1); PD1-H5257 (PD-1)
Outline: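 Inhibitors were preincubated 40 min at 25°C with 10 nM His-tagged human PD-L1 (19-238) and 3 nM Fc-tagged human PD-1 (25-167) in PBS pH 7.4 containing Tween-20, BSA and 1% DMSO. After 60 min with europium anti-human IgG and anti-His-APC, 665/620 nm signal ratio gave IC50 via percent-control fit.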

T1 sequence (Q9NZQ7 19-238): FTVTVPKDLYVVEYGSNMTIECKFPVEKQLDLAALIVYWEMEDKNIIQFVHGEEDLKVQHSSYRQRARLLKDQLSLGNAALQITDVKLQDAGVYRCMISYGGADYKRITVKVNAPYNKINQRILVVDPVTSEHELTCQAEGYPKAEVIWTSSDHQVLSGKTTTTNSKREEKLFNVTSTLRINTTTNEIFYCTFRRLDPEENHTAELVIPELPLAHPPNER

Compound	IC50
Cc1c(Nc2nccc3cc(CNCC(=O)O)cnc23)cccc1-c1cccc2c1CCN2C(=O)C1=NC2CCN(CCC(=O)O)CC2S1 (stereo not drawn) [Example 161, 3-(2-(4-(3-((3-(((carboxymethyl)amino)methyl)-1,7-naphthyridin-8-yl)amino)-2-methylphenyl)indoline-1-carbonyl)-3a,6,7,7a-tetrahydrothiazolo[5,4-c]pyridin-5(4H)-yl)propanoic acid]	< 25 nM
Cc1c(Nc2nccc3cc(CNCC(=O)O)cnc23)cccc1-c1cccc(Nc2nccc3cc(CNC[C@@H](O)CC(=O)O)cnc23)c1C [Example 141, (S)-4-(((8-((3′-((3-(((carboxymethyl)amino)methyl)-1,7-naphthyridin-8-yl)amino)-2,2′-dimethyl-[1,1′-biphenyl]-3-yl)amino)-1,7-naphthyridin-3-yl)methyl)amino)-3-hydroxybutanoic acid]	< 25 nM
Cc1nc(C(=O)N2CCc3c(-c4cccc(NC(=O)c5ncc(CN(C)CCO)s5)c4)cccc32)sc1CN(C)C [Example 114, N-(3-(1-(5-((dimethylamino)methyl)-4-methylthiazole-2-carbonyl)indolin-4-yl)phenyl)-5-(((2-hydroxyethyl)(methyl)amino)methyl)thiazole-2-carboxamide]	< 25 nM
Cc1ccc(-c2ccc(C)c(NC(=O)c3nc4c(s3)CNCC4)c2C)c(C)c1NC(=O)c1nc2c(s1)CNCC2 [Example 94, N,N′-(2,2′,4,4′-tetramethyl-[1,1′-biphenyl]-3,3′-diyl)bis(4,5,6,7-tetrahydrothiazolo[5,4-c]pyridine-2-carboxamide)]	< 25 nM
Cc1c(NC(=O)c2cc3c(s2)CCNC3)cccc1-c1cccc(NC(=O)c2nc3c(s2)CNCC3)c1C [Example 15, N-(2,2′-dimethyl-3′-(4,5,6,7-tetrahydrothieno[3,2-c]pyridine-2-carboxamido)-[1,1′-biphenyl]-3-yl)-4,5,6,7-tetrahydrothiazolo[5,4-c]pyridine-2-carboxamide]	< 25 nM
Cc1c(Nc2nccc3cc(CNCC(N)=O)cnc23)cccc1-c1cccc2c1CCN2C(=O)C1=NC2CCN(CC(=O)O)CC2S1 (stereo not drawn) [Example 164, 2-(2-(4-(3-((3-(((2-amino-2-oxoethyl)amino)methyl)-1,7-naphthyridin-8-yl)amino)-2-methylphenyl)indoline-1-carbonyl)-3a,6,7,7a-tetrahydrothiazolo[5,4-c]pyridin-5(4H)-yl)acetic acid]	< 25 nM
Cc1c(Nc2nccc3cc(CN4CC[C@H](N(C)C)C4)cnc23)cccc1-c1cccc(Nc2nccc3cc(CN4CC[C@H](N(C)C)C4)cnc23)c1C [Example 153, N3,N3′-bis(3-(((S)-3-(dimethylamino)pyrrolidin-1-yl)methyl)-1,7-naphthyridin-8-yl)-2,2′-dimethyl-[1,1′-biphenyl]-3,3′-diamine]	< 25 nM
Cc1c(NC(=O)c2nc3c(s2)CN(C(C)C(=O)O)CC3)cccc1-c1cccc(NC(=O)c2nc3c(s2)CN(C(C)C(=O)O)CC3)c1C (stereo not drawn) [Example 79, 2,2′-((((2,2′-dimethyl-[1,1′-biphenyl]-3,3′-diyl)bis(azanediyl))bis(carbonyl))bis(6,7-dihydrothiazolo[5,4-c]pyridine-2,5(4H)-diyl))dipropionic acid]	< 25 nM
COC(=O)Cn1cc(CN2CCc3nc(C(=O)N4CCc5c(-c6cccc7c6CCN7C(=O)c6nc7c(s6)CN(Cc6cn(CC(=O)OC)nn6)CC7)cccc54)sc3C2)nn1 [Example 135, dimethyl 2,2′-(((([4,4′-biindoline]-1,1′-dicarbonyl)bis(6,7-dihydrothiazolo[5,4-c]pyridine-2,5(4H)-diyl))bis(methylene))bis(1H-1,2,3-triazole-4,1-diyl))diacetate]	< 25 nM
O=C(c1nc2c(s1)CN(CC(F)F)CC2)N1CCc2c(-c3cccc4c3CCN4C(=O)c3nc4c(s3)CN(CC(F)F)CC4)cccc21 [Example 85, [4,4′-biindoline]-1,1′-diylbis((5-(2,2-difluoroethyl)-4,5,6,7-tetrahydrothiazolo[5,4-c]pyridin-2-yl)methanone)]	25 to 100 nM
Cc1c(-c2cccc(N(C)C(=O)c3nc4c(s3)CNCC4)c2C)cccc1N(C)C(=O)c1nc2c(s1)CNCC2 [Example 23, N,N′-(2,2′-dimethyl-[1,1′-biphenyl]-3,3′-diyl)bis(N-methyl-4,5,6,7-tetrahydrothiazolo[5,4-c]pyridine-2-carboxamide)]	100 to 200 nM
Cc1c(Nc2nccc3cc(CNC[C@@H](O)CC(=O)O)cnc23)cccc1-c1cccc(Nc2nccc3cc(CNC[C@@H](O)CC(=O)O)cnc23)c1C [Example 143, (3S,3'S)-4,4′-(((((2,2′-dimethyl-[1,1′-biphenyl]-3,3′-diyl)bis(azanediyl))bis(1,7-naphthyridine-8,3-diyl))bis(methylene))bis(azanediyl))bis(3-hydroxybutanoic acid)]	< 25 nM
O=C(Nc1cccc(-c2cccc(NC(=O)c3ncc(CN4C[C@H](O)C[C@H]4C(=O)O)s3)c2Cl)c1Cl)c1ncc(CN2C[C@H](O)C[C@H]2C(=O)O)s1 [Example 67, (2S,2'S,4R,4′R)-1,1′-(((((2,2′-dichloro-[1,1′-biphenyl]-3,3′-diyl)bis(azanediyl))bis(carbonyl))bis(thiazole-2,5-diyl))bis(methylene))bis(4-hydroxypyrrolidine-2-carboxylic acid)]	< 25 nM
NC(=O)CN1CCc2nc(C(=O)N3CCc4c(-c5cccc6c5CCN6C(=O)c5nc6c(s5)CN(CC(N)=O)CC6)cccc43)sc2C1 [Example 104, 2,2′-(([4,4′-biindoline]-1,1′-dicarbonyl)bis(6,7-dihydrothiazolo[5,4-c]pyridine-2,5(4H)-diyl))diacetamide]	< 25 nM
COC(=O)NCCN1CCc2nc(C(=O)N3CCc4c(-c5cccc6c5CCN6C(=O)c5nc6c(s5)CN(CCNC(=O)OC)CC6)cccc43)sc2C1 [Example 130, dimethyl ((([4,4′-biindoline]-1,1′-dicarbonyl)bis(6,7-dihydrothiazolo[5,4-c]pyridine-2,5(4H)-diyl))bis(ethane-2,1-diyl))dicarbamate]	< 25 nM
Cc1nc(C(=O)N2CCc3c(-c4cccc5c4CCN5C(=O)c4nc(C)c(CN5CCCC[C@H]5C(=O)O)s4)cccc32)sc1CN1CCCC[C@H]1C(=O)O [Example 56, (2S,2'S)-1,1′-(2,2′-(4,4′-biindoline-1,1′-diylbis(oxomethylene))bis(4-methylthiazole-5,2-diyl))bis(methylene)dipiperidine-2-carboxylic acid]	< 25 nM
Cc1nc(C(=O)Nc2cccc(-c3cccc4c3CCN4C(=O)c3nc(C)c(CN[C@H](C(=O)O)C4CCOCC4)s3)c2Cl)sc1CN[C@H](C(=O)O)C1CCOCC1 [Example 61, (S)-2-((2-(3-(1-(5-(((S)-carboxy(tetrahydro-2H-pyran-4-yl)methylamino)methyl)-4-methylthiazole-2-carbonyl)indolin-4-yl)-2-chlorophenylcarbamoyl)-4-methylthiazol-5-yl)methylamino)-2-(tetrahydro-2H-pyran-4-yl)acetic acid]	< 25 nM
Cc1nc(C(=O)N2CCc3c(-c4cccc5c4CCN5C(=O)c4nc(C)c(CN[C@H](C(=O)O)C5CCOCC5)s4)cccc32)sc1CN[C@H](C(=O)O)C1CCOCC1 [Example 57, (2S,2'S)-2,2′-(2,2′-(4,4′-biindoline-1,1′-diylbis(oxomethylene))bis(4-methylthiazole-5,2-diyl))bis(methylene)bis(azanediyl)bis(2-(tetrahydro-2H-pyran-4-yl)acetic acid)]	< 25 nM
